Test results reported in patent US9579408B2, “PET/SPECT agents for applications in biomedical imaging” (Washington University, priority 2011, dated 2017).
Like-named read-outs stand apart in the source and are kept apart here.

Assays:
[1] = NanoSPECT/CT imaging in rat; format: in vivo; conditions: i.v. tail-vein, 30 min and 250 min post-injection
Procedure: (FIG. 4) and 250 min. (FIG. 5) post-injection. The arrows indicate heart uptake.

[2] = rats, n = 3
[3] = Quantitative biodistribution in wild-type (WT) mice; conditions: n = 3
Procedure: All bioassays were performed as described in earlier publications.

MDR1 Pgp (ABCB1) = conditions: mdr1a/1b (-/-) (dKO) mice, n = 3
[4] = rat, i.v. tail-vein, 60 min post-injection
Procedure: This Example illustrates MicroPET imaging of myocardial perfusion in a rat. In these experiments, ^68Ga-radiopharmaceutical 1B was injected intravenously into a rat tail-vein; MicroPET images were obtained 60 min. (FIG. 6) post-injection.

CC(C)Oc1cccc2c1[O][67Ga+][O]c1c(cccc1OC(C)C)C=NCC(C)(C)CNCCNCC(C)(C)CN=C2.[I-] [Agent 1A, [ENBDMP-3-isopropoxy-PI-^67Ga]^+]
NanoSPECT/CT image finding [1]: heart uptake
Biodistribution, blood ([2]; 5 min P.I.): 0.175 % ID/g
Biodistribution, blood ([2]; 15 min P.I.): 0.041 % ID/g
Biodistribution, blood ([2]; 60 min P.I.): 0.028 % ID/g
Biodistribution, blood ([2]; 120 min P.I.): 0.012 % ID/g
Biodistribution, brain ([2]; 5 min P.I.): 0.024 % ID/g
Biodistribution, brain ([2]; 15 min P.I.): 0.015 % ID/g
Biodistribution, brain ([2]; 60 min P.I.): 0.018 % ID/g
Biodistribution, brain ([2]; 120 min P.I.): 0.016 % ID/g
Biodistribution, heart ([2]; 5 min P.I.): 1.443 % ID/g
Biodistribution, heart ([2]; 15 min P.I.): 1.306 % ID/g
Biodistribution, heart ([2]; 60 min P.I.): 1.386 % ID/g
Biodistribution, heart ([2]; 120 min P.I.): 1.516 % ID/g
Biodistribution, kidneys ([2]; 5 min P.I.): 8.142 % ID/g
Biodistribution, kidneys ([2]; 15 min P.I.): 5.168 % ID/g
Biodistribution, kidneys ([2]; 60 min P.I.): 4.201 % ID/g
Biodistribution, kidneys ([2]; 120 min P.I.): 3.543 % ID/g
Biodistribution, liver ([2]; 5 min P.I.): 2.615 % ID/g
Biodistribution, liver ([2]; 15 min P.I.): 0.657 % ID/g
Biodistribution, liver ([2]; 60 min P.I.): 0.328 % ID/g
Biodistribution, liver ([2]; 120 min P.I.): 0.203 % ID/g
Biodistribution, lung ([2]; 5 min P.I.): 0.814 % ID/g
Biodistribution, lung ([2]; 15 min P.I.): 0.626 % ID/g
Biodistribution, lung ([2]; 60 min P.I.): 0.559 % ID/g
Biodistribution, lung ([2]; 120 min P.I.): 0.591 % ID/g
Biodistribution, blood ([3]; 5 min P.I.): 1.26 % ID/g
Biodistribution, blood ([3]; 15 min P.I.): 0.29 % ID/g
Biodistribution, blood ([3]; 60 min P.I.): 0.10 % ID/g
Biodistribution, blood ([3]; 120 min P.I.): 0.07 % ID/g
Biodistribution, brain ([3]; 5 min P.I.): 0.14 % ID/g
Biodistribution, brain ([3]; 15 min P.I.): 0.12 % ID/g
Biodistribution, brain ([3]; 60 min P.I.): 0.09 % ID/g
Biodistribution, brain ([3]; 120 min P.I.): 0.06 % ID/g
Biodistribution, heart ([3]; 5 min P.I.): 9.21 % ID/g
Biodistribution, heart ([3]; 15 min P.I.): 8.37 % ID/g
Biodistribution, heart ([3]; 60 min P.I.): 11.98 % ID/g
Biodistribution, heart ([3]; 120 min P.I.): 9.81 % ID/g
Biodistribution, kidneys ([3]; 5 min P.I.): 81.04 % ID/g
Biodistribution, kidneys ([3]; 15 min P.I.): 83.46 % ID/g
Biodistribution, kidneys ([3]; 60 min P.I.): 93.35 % ID/g
Biodistribution, kidneys ([3]; 120 min P.I.): 67.91 % ID/g
Biodistribution, liver ([3]; 5 min P.I.): 44.95 % ID/g
Biodistribution, liver ([3]; 15 min P.I.): 33.80 % ID/g
Biodistribution, liver ([3]; 60 min P.I.): 7.44 % ID/g
Biodistribution, liver ([3]; 120 min P.I.): 2.90 % ID/g
Biodistribution, blood (MDR1 Pgp (ABCB1); 5 min P.I.): 1.54 % ID/g
Biodistribution, blood (MDR1 Pgp (ABCB1); 15 min P.I.): 0.64 % ID/g
Biodistribution, blood (MDR1 Pgp (ABCB1); 60 min P.I.): 0.34 % ID/g
Biodistribution, blood (MDR1 Pgp (ABCB1); 120 min P.I.): 0.19 % ID/g
Biodistribution, brain (MDR1 Pgp (ABCB1); 5 min P.I.): 1.05 % ID/g
Biodistribution, brain (MDR1 Pgp (ABCB1); 15 min P.I.): 0.65 % ID/g
Biodistribution, brain (MDR1 Pgp (ABCB1); 60 min P.I.): 0.99 % ID/g
Biodistribution, brain (MDR1 Pgp (ABCB1); 120 min P.I.): 0.96 % ID/g
Biodistribution, heart (MDR1 Pgp (ABCB1); 5 min P.I.): 17.02 % ID/g
Biodistribution, heart (MDR1 Pgp (ABCB1); 15 min P.I.): 10.59 % ID/g
Biodistribution, heart (MDR1 Pgp (ABCB1); 60 min P.I.): 14.61 % ID/g
Biodistribution, heart (MDR1 Pgp (ABCB1); 120 min P.I.): 20.29 % ID/g
Biodistribution, kidneys (MDR1 Pgp (ABCB1); 5 min P.I.): 86.12 % ID/g
Biodistribution, kidneys (MDR1 Pgp (ABCB1); 15 min P.I.): 84.19 % ID/g
Biodistribution, kidneys (MDR1 Pgp (ABCB1); 60 min P.I.): 95.60 % ID/g
Biodistribution, kidneys (MDR1 Pgp (ABCB1); 120 min P.I.): 115.23 % ID/g
Biodistribution, liver (MDR1 Pgp (ABCB1); 5 min P.I.): 46.34 % ID/g
Biodistribution, liver (MDR1 Pgp (ABCB1); 15 min P.I.): 46.45 % ID/g
Biodistribution, liver (MDR1 Pgp (ABCB1); 60 min P.I.): 42.54 % ID/g
Biodistribution, liver (MDR1 Pgp (ABCB1); 120 min P.I.): 29.82 % ID/g

CC(C)Oc1cccc2c1[O][68Ga-3]1345[O]c6c(cccc6OC(C)C)C=[N+]1CC(C)(C)C[NH+]3CC[NH+]4CC(C)(C)C[N+]5=C2.[I-] (stereo not drawn) [Agent 1B, [ENBDMP-3-isopropoxy-PI-^68Ga]^+]
MicroPET image finding [4]: low level of signal from liver compared to the heart
